Activity calls are given as the source filed them. The rule behind the calls is not given here.
Key:
HCT-116 [1] = test: Antiproliferative activity against human HCT116 cells after 72 hrs by MTT assay; assay type: functional, cell-based; details: HCT-116, 72 h
HepG2 = test: Antiproliferative activity against human HepG2 cells after 72 hrs by MTT assay; assay type: functional, cell-based; details: HepG2, 72 h
MCF7 = test: Antiproliferative activity against human MCF7 cells after 72 hrs by MTT assay; assay type: functional, cell-based; details: MCF7, 72 h
A549 = test: Antiproliferative activity against human A549 cells after 72 hrs by MTT assay; assay type: functional, cell-based; details: A549, 72 h
MGC-803 = test: Antiproliferative activity against human MGC803 cells after 72 hrs by MTT assay; assay type: functional, cell-based; details: MGC-803, 72 h
[2] = Antiproliferative activity against human HBMEC cells after 72 hrs by MTT assay; assay type: cell-based
L02 = test: Antiproliferative activity against human LO2 cells after 72 hrs by MTT assay; assay type: cell-based; details: L02, 72 h
[3] = Antiproliferative activity against human CCD-841 cells after 72 hrs by MTT assay; assay type: cell-based; details: CCD-841, 72 h
HaCaT = test: Antiproliferative activity against human HaCaT cells after 72 hrs by MTT assay; assay type: cell-based
BEAS-2B = test: Antiproliferative activity against human BEAS2B cells after 72 hrs by MTT assay; assay type: functional, cell-based
HCT-116 [4] = test: Antitumor activity against human HCT116 cells xenografted in BALB/c nude mouse assessed as decrease in tumor size at 20 mg/kg, iv administered once per day for 14 days and measured every 2 days; assay type: functional
HCT-116 [5] = test: Antitumor activity against human HCT116 cells xenografted in BALB/c nude mouse assessed as decrease in tumor weight at 20 mg/kg, iv administered once per day for 14 days and measured every 2 days; assay type: functional

IC50 (HCT-116 [1]) | IC50 (HepG2) | IC50 (MCF7) | IC50 (A549) | IC50 (MGC-803) | SMILES | IC50 [2] | IC50 (L02) | IC50 [3] | IC50 (HaCaT) | IC50 (BEAS-2B) | Activity (HCT-116 [4]) | Activity (HCT-116 [5])
9.93 µM | 5.51 µM | 15 µM | 10.2 µM | 7.7 µM | CC(=O)N[C@H]1[C@H](O[C@H]2CC[C@]3(C)[C@H]4CC=C5[C@@H]6CC(C)(C)CC[C@]6(C(=O)OCc6cn(-c7cccc(Br)c7)nn6)CC[C@@]5(C)[C@]4(C)CC[C@H]3C2(C)C)O[C@H](CO[C@@H]2OC[C@H](O)[C@H](O)[C@@H]2O)[C@@H](O)[C@@H]1O | 20.4 µM | 35.4 µM | 18.2 µM | 39.3 µM | 11.3 µM | – | –
16 µM | 11.4 µM | 21.9 µM | 17.6 µM | 20.8 µM | CC(=O)N[C@H]1[C@H](O[C@H]2CC[C@]3(C)[C@H]4CC=C5[C@@H]6CC(C)(C)CC[C@]6(C(=O)O)CC[C@@]5(C)[C@]4(C)CC[C@H]3C2(C)C)O[C@H](CO[C@@H]2OC[C@H](O)[C@H](O)[C@@H]2O)[C@@H](O)[C@@H]1O | – | – | – | – | – | Active | Active
12.2 µM | 5.39 µM | 10.8 µM | 9.08 µM | 10.1 µM | CC(=O)N[C@H]1[C@H](O[C@H]2CC[C@]3(C)[C@H]4CC=C5[C@@H]6CC(C)(C)CC[C@]6(C(=O)OCc6cn(-c7cccc(I)c7)nn6)CC[C@@]5(C)[C@]4(C)CC[C@H]3C2(C)C)O[C@H](CO[C@@H]2OC[C@H](O)[C@H](O)[C@@H]2O)[C@@H](O)[C@@H]1O | 18.7 µM | 27.4 µM | 36.5 µM | 29.5 µM | 14.6 µM | – | –

Reference: ChEMBL document CHEMBL4261580, “Novel antitumor compound optimized from natural saponin Albiziabioside A induced caspase-dependent apoptosis and ferroptosis as a p53 activator through the mitochondrial pathway” (Eur J Med Chem, 2018)
